According to patent US20200131123A1, “INDOLE-FORMAMIDE DERIVATIVE, PREPARATION METHOD THEREFOR AND USE THEREOF IN MEDICINE” (Jiangsu Hengrui Medicine Co., Ltd., priority 2017, published 2020):
Like-named read-outs stand apart in the source and are kept apart here.

Legend:
RORγ LBD = target: T1, RORγ LBD (Homo sapiens, UniProt P51449); assay: LanthaScreen TR-FRET RORγ co-activation system, effect on in vitro activity of RORγ; assay type: biochemical; settings: for EC50: TR-FRET RORγ co-activation, for agonist the value refers to EC50, read-out: EC50/IC50 a (nM): EC50 (agonist); for Type: agonist or inverse agonist of RORγ
T1 construct: RORγ LBD was diluted with the complete buffer D to a concentration of 1 ng/μL; GST; purchased AB Vector
T1 sequence (P51449 269-508 limits assumed): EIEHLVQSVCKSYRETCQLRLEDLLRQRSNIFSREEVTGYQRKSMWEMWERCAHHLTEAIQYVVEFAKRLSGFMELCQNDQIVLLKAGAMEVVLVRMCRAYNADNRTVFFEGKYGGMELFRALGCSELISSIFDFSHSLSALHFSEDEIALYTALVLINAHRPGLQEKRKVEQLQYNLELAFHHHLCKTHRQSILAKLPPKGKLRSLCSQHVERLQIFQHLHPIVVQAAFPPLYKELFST
Method: 1. LanthaScreen® TR-FRET RORγ co-activation system (Life Technologies)
A complete buffer D (complete TR-FRET Coregulator) (Life Technologies) was formulated first, containing a final concentration of 5 mM DTT. The final concentration of DMSO was 2%. The test compound was serially diluted to 2× final concentration in the complete buffer D containing 2% of DMSO, and the maximum dose was […]. The test compound was added to the test wells of a 384-well plate (PerkinElmer) in 10 μl/well. Two parallel control wells were set up for each test compound at the same concentration. 4×RORγ LBD (AB Vector) was formulated. RORγ LBD was diluted with the complete buffer D to a concentration of 1 ng/μL, and added to the test wells of 384-well plate in 5 μl/well. The negative control well was 5 μL of complete buffer D without RORγ LBD. A mixed solution comprising 0.6 μM of fluorescein-D22 (4×) and 8 nM of terbium(Tb)-labeled anti-GST antibody (4×) (Life Technologies) was formulated with the complete buffer D, and 5 μL of the mixed solution was added to the 384-well plate. The total reaction system was 20 μL. The 384-well plate was gently shaken on a shaker, and incubated at room temperature in the dark for 2-4 hours.
Fluorescence readings were determined with Tecan Infinite M1000. The logarithmic curve of the ratio of the emission wavelength of 520 nm/495 nm to the concentration of the compound was plotted by GraphPad Prism 6.0 software. EC50/IC50 value of the test compound was calculated.

IL-17A = IL-17A enzyme-linked immune quantitative assay in cytostim-activated human PBMC; assay type: cell-based; settings: 72 h; IL-17A in supernatant of human PBMC, 3 days after drug treatment
Method: 1. Human peripheral blood mononuclear cells (PBMC) (Zenbio)
5. Human IL-17 enzyme-linked immunosorbent kit (R&D System)
Frozen human peripheral blood mononuclear cells (PBMC) were rapidly resuscitated in pre-warmed lymphocyte culture medium, and centrifuged at 1000 rpm for 10 min. The cell culture supernatant was removed. The cells were gently suspended in TexMACS medium and counted. The T cell activation reagent cytostim (10 μl/ml) was added in proportion to the cell suspension. Then, the cells were seeded in a 96-well cell culture plate at a density of 1×10^5 peripheral blood mononuclear cells/well. The test compounds were diluted in gradient with TexMACS medium, and added respectively to the test wells, with 2-3 parallel wells per group. A negative control well containing only cells without cytostim was provided to obtain the background reading. The cell culture plate was placed in a incubator at 5% carbon dioxide, 37° C. to incubate for 3 days. The cell culture supernatant was collected 3 days after drug treatment, and centrifuged to remove the suspension. Then, IL-17A in the supernatant was quantified with IL-17A enzyme-linked immunosorbent kit. EC50 values of the test compounds were calculated with GraphPad Prism 6.0.

[1] = for agonist the value refers to Emax(%), read-out: Emax(%)/maximum inhibition rate b: Emax(%) (agonist)

EC50 (RORγ LBD) | Type (RORγ LBD) | Emax (RORγ LBD; [1]) | EC50 (IL-17A) | IC50 (RORγ LBD) | Emax (RORγ LBD; read-out: Emax(%)/maximum inhibition rate b: maximum inhibition rate (inverse agonist)) | SMILES | Emax (IL-17A)
64 nM | Agonist | 94% | – | – | – | CCS(=O)(=O)c1ccc(C(CO)NC(=O)c2ccc3c(c2)cc(Cc2ccccc2C(F)(F)F)n3C(C)C)cc1 (centres unmarked) [Example 1, N-(1-(4-(Ethylsulfonyl)phenyl)-2-hydroxyethyl)-1-isopropyl-2-(2-(trifluoromethyl)benzyl)-1H-indole-5-carboxamide] | –
– | – | – | 169 nM | – | – | CCS(=O)(=O)c1ccc([C@@H](CO)NC(=O)c2ccc3c(c2)cc(Cc2ccc(Cl)cc2C(F)(F)F)n3CCF)cc1 [Example 3, (S)-2-(4-Chloro-2-(trifluoromethyl)benzyl)-N-(1-(4-(ethylsulfonyl)phenyl)-2-hydroxyethyl)-1-(2-fluoroethyl)-1H-indole-5-carboxamide] | 136%
334 nM | Agonist | 110% | – | – | – | CCS(=O)(=O)c1ccc([C@H](CO)NC(=O)c2cc3cc(Cc4ccc(Cl)cc4C(F)(F)F)n(CCF)c3cc2F)cc1 [Example 5, (R)-2-(4-Chloro-2-(trifluoromethyl)benzyl)-N-(1-(4-(ethylsulfonyl)phenyl)-2-hydroxyethyl)-6-fluoro-1-(2-fluoroethyl)-1H-indole-5-carboxamide] | –
79 nM | Agonist | 105% | – | – | – | CCS(=O)(=O)c1ccc([C@H](CO)NC(=O)c2cc3cc(Cc4ccc(Cl)cc4C(F)(F)F)n(C4CC4)c3cc2F)cc1 [Example 6, (R)-2-(4-Chloro-2-(trifluoromethyl)benzyl)-1-cyclopropyl-N-(1-(4-(ethylsulfonyl)phenyl)-2-hydroxyethyl)-6-fluoro-1H-indole-5-carboxamide] | –
80 nM | Agonist | 84% | – | – | – | CCS(=O)(=O)c1ccc([C@H](CO)NC(=O)c2ccc3c(c2)cc(CN2CCOCC2C(F)(F)F)n3CCF)cc1 (stereo partly drawn) [Example 7, N—((R)-1-(4-(Ethylsulfonyl)phenyl)-2-hydroxyethyl)-1-(2-fluoroethyl)-2-((3-(trifluoromethyl)morpholino)methyl)-1H-indole-5-carboxamide] | –
22 nM | – | 94% | 276 nM | – | – | CCS(=O)(=O)c1ccc([C@H](CO)NC(=O)c2ccc3c(c2)cc(Cc2ccc(Cl)cc2C(F)(F)F)n3C2CC2)cc1 [Example 11, (R)-2-(4-Chloro-2-(trifluoromethyl)benzyl)-1-cyclopropyl-N-(1-(4-(ethylsulfonyl)phenyl)-2-hydroxyethyl)-1H-indole-5-carboxamide] | 72%
124 nM | Agonist | 109% | – | – | – | O=C(N[C@@H](CO)c1ccc(S(=O)(=O)C2CC2)cc1)c1ccc2c(c1)cc(Cc1ccc(Cl)cc1C(F)(F)F)n2CCF [Example 15, (R)-2-(4-Chloro-2-(trifluoromethyl)benzyl)-N-(1-(4-(cyclopropylsulfonyl)phenyl)-2-hydroxyethyl)-1-(2-fluoroethyl)-1H-indole-5-carboxamide] | –
– | Inverse agonist | – | – | 29 nM | 67% | CCS(=O)(=O)c1ccc([C@H](CO)NC(=O)c2ccc3c(c2)cc(Cc2ccc(C(F)(F)F)cc2)n3CCF)cc1 [Example 17, (R)-2-(4-(trifluoromethyl)benzyl)-N-(1-(4-(ethylsulfonyl)phenyl)-2-hydroxyethyl)-1-(2-fluoroethyl)-1H-indole-5-carboxamide] | –

SMILES | EC50 (RORγ LBD) | Type (RORγ LBD) | Emax (RORγ LBD; [1]) | EC50 (IL-17A) | IC50 (RORγ LBD) | Emax (RORγ LBD; read-out: Emax(%)/maximum inhibition rate b: maximum inhibition rate (inverse agonist)) | Emax (IL-17A)
CCS(=O)(=O)c1ccc(C(CO)NC(=O)c2ccc3c(c2)cc(Cc2ccc(Cl)cc2C(F)(F)F)n3CCF)cc1 (centres unmarked) [Example 2, 2-(4-Chloro-2-(trifluoromethyl)benzyl)-N-(1-(4-(ethylsulfonyl)phenyl)-2-hydroxyethyl)-1-(2-fluoroethyl)-1H-indole-5-carboxamide] | – | – | – | 90 nM | – | – | 82%
